Like-named read-outs stand apart in the source and are kept apart here.

The values below come from patent US5085989A, “Method and reagent for quantitative analysis of 3-oxo-5β-steroid” (Daiichi Pure Chemicals Co., Ltd., priority 1986, dated 1992).

The nature of this series: Dehydrochoric acid level in serum after intravenous administration (loading test). The series is classed as in vivo, human (liver cirrhosis patient and healthy subject). Conditions: human, 1000 mg, 1g intravenously; for AUC: read-out: area under concentration curve of the compound in blood (AUC) (converted); for k el: read-out: elimination constant (Kel) (converted). As for the experimental part:
A liver cirrhosis patient and a healthy subject were each intravenously given 1g of dehydrochoric acid. The changes of the dehydrochoric acid level in serum after the administration were determined according to the same procedure as in Example 1 and using the reagent of Example 1. The results are shown in the appended FIG. 1. The elimination constant (keλ), the half-life period (T 1/2) and the area under concentration curve of the compound in blood (AUC) are given in Table 3.

For the compound `C[C@H](CCC(=O)O)[C@H]1CC[C@H]2[C@@H]3C(=O)C[C@@H]4CC(=O)CC[C@]4(C)[C@H]3CC(=O)[C@]12C` [Dehydrochoric Acid, dehydrochoric acid], where the note is “healthy subject”, the AUC was 45400 ng·h/mL and the k el was 0.00118 s⁻¹. Besides, under “liver cirrhosis patient”, the AUC is 23300 ng·h/mL and the k el is 0.00262 s⁻¹.
